Measured values reported in US20240034717A1, “NOVEL POTASSIUM CHANNEL INHIBITORS” (Saniona A/S, priority 2020, published 2024).

Molecular target: erythrocyte KCa3.1 channels (Homo sapiens (Human), UniProt O15554)
Assay: Erythrocyte KCa3.1 assay
Format: cell-based
Settings: human erythrocytes, A23187-activated KCa3.1; read-out: RBC K (in vitro) Human IC50 (μM) Potency category
Description: Human blood was drawn from healthy human volunteers in a standard heparinized blood sampling vial (Vacutainer, Li/heparin, ED Bioscience, Plymouth, UK). The erythrocytes were packed by centrifugation, and the plasma and buffy coat were removed by aspiration. Erythrocytes were washed three times in the experimental salt solution and then stored at 0° C. until use. Blood samples from NMRI mice or from Wistar rats were treated similarly. The methodological principle is outlined in Macey et al. (1978) and further described in Strøbaek et al. (2013). Activation of the erythrocyte KCa3.1 channels were obtained by addition of the Ca^2+ ionophore A23187, which causes synchronized hyperpolarization, which is reported as a CCCP-mediated shift in the unbuffered extracellular pH of the erythrocyte suspension. Standard procedure: 3 mL unbuffered experimental salt solution (in mM: 2 KCl, 154 NaCl, 0.05 CaCl2) was heated to 37° C. with stirring. Packed erythrocytes were added (50 μL, final cytocrit 1.5%), and the extracellular pH (pHo) followed with a glass/calomel (pHG200-8/REF200, Radiometer, Denmark) electrode pair. CCCP (3 μL, final concentration 20 μM) was added followed by varying concentrations of test compounds (DMSO concentration constant). After pH stabilization at ˜7.2, A23187 (3 μL, final concentration 0.33 μM) was added to initiate the experiment. After the peak hyperpolarization was attained, the intracellular pH (pHi constant during the experiment) was found by haemolysing the erythrocytes via addition of 100 μL of Triton-X100.
The erythrocyte membrane potential, Vm, was calculated according to: […]
and the fractional remaining Ca^2+-activated K^+-conductance at the concentration C of blocker, fGK(C), was calculated from
where the K^+ equilibrium potential EK=−107 mV, the Cl^− equilibrium potential ECl=−12 mV and the Vm(0) and Vm(C) are the peak hyperpolarizations in the control and in the presence of a concentration of C of blocker respectively.
IC50 values for compounds were calculated from a plot of fGK(C) versus C by a fit to the Hill equation, using a custom program written in the IGOR-Pro software (WaveMetrics, Lake Oswego, OR, USA). All IC50-values are reported in μM.

Row | IC50 [µM] | SMILES
1 | < 1 | Fc1ccc(C2(NC[C@H]3CCCN3)CCC2)cc1C1CC1 [1-(3-cyclopropyl-4-fluorophenyl)-N-{[(2R)-pyrrolidin-2-yl]methyl}cyclobutan-1-amine]
2 | < 1 | Fc1ccc(C2(NC[C@@H]3CCCN3)CCC2)cc1C1CC1 [1-(3-cyclopropyl-4-fluorophenyl)-N-{[(2S)-pyrrolidin-2-yl]methyl}cyclobutan-1-amine]
3 | < 1 | Fc1cc(C(F)(F)F)cc(C2(NC[C@H]3CCCN3)CCC2)c1 [1-[3-fluoro-5-(trifluoromethyl)phenyl]-N-{[(2R)-pyrrolidin-2-yl]methyl}cyclobutan-1-amine]
4 | < 1 | Fc1ccc(C2(NC[C@H]3CCCN3)CCC2)cc1C(F)(F)F [1-[4-fluoro-3-(trifluoromethyl)phenyl]-N-{[(2R)-pyrrolidin-2-yl]methyl}cyclobutan-1-amine]
5 | < 0.3 | Fc1ccc(C2(NC[C@@H]3CCCN3)CCC2)cc1C(F)(F)F [1-[4-fluoro-3-(trifluoromethyl)phenyl]-N-{[(2S)-pyrrolidin-2-yl]methyl}cyclobutan-1-amine]
6 | < 0.3 | CC(C)(N)CNC1(c2cccc(C(F)(F)F)c2)CCC1 [2-methyl-N1-{1-[3-(trifluoromethyl)phenyl]cyclobutyl}propane-1,2-diamine]
7 | < 0.3 | O=C(OCC1CC1)N(C[C@@H]1CCCN1)C1(c2ccc(F)c(C(F)(F)F)c2)CC1 [Cyclopropylmethyl (S)-(1-(4-fluoro-3-(trifluoromethyl)phenyl)cyclopropyl)(pyrrolidin-2-ylmethyl)carbamate]
8 | < 1 | COC(=O)N(CCN)C1(c2ccc(F)c(C(F)(F)F)c2)CC1 [Methyl (2-aminoethyl)(1-(4-fluoro-3-(trifluoromethyl)phenyl)cyclopropyl)carbamate]
9 | < 0.3 | COC(=O)N(C[C@@H]1COCCN1C)C1(c2ccc(F)c(C(F)(F)F)c2)CC1 [Methyl (R)-(1-(4-fluoro-3-(trifluoromethyl)phenyl)cyclopropyl)((4-methylmorpholin-3-yl)methyl)carbamate]
10 | < 1 | COC(=O)N(C[C@@H]1COCCN1)C1(c2ccc(F)c(C(F)(F)F)c2)CC1 [Methyl (R)-(1-(4-fluoro-3-(trifluoromethyl)phenyl)cyclopropyl)(morpholin-3-ylmethyl) carbamate]
11 | < 1 | COC(=O)N(CC(C)(C)N)C1(c2cc(Cl)ccc2F)CCC1 [Methyl N-(2-amino-2-methylpropyl)-N-[1-(5-chloro-2-fluorophenyl)cyclobutyl]carbamate]
12 | < 0.3 | COC(=O)N(CC(C)(C)N)C1(c2cccc(OC(F)(F)F)c2)CCC1 [Methyl N-(2-amino-2-methylpropyl)-N-{1-[3-(trifluoromethoxy)phenyl]cyclobutyl}carbamate]
13 | < 0.3 | COC(=O)N(CC(C)(C)N)C1(c2cc(F)cc(C(F)(F)F)c2)CCC1 [Methyl N-(2-amino-2-methylpropyl)-N-{1-[3-fluoro-5-(trifluoromethyl)phenyl]cyclobutyl}carbamate]
14 | < 0.3 | COC(=O)N(C[C@H]1CCCN1)C1(c2cccc(Cl)c2)CCC1 [Methyl N-[1-(3-chlorophenyl)cyclobutyl]-N-{[(2R)-pyrrolidin-2-yl]methyl}carbamate]
15 | < 0.3 | COC(=O)N(C[C@@H]1CCCN1)C1(c2cccc(Cl)c2)CCC1 [Methyl N-[1-(3-chlorophenyl)cyclobutyl]-N-{[(2S)-pyrrolidin-2-yl]methyl}carbamate]
16 | < 1 | COC(=O)N(C[C@@H]1CCCN1)C1(c2cc(Cl)ccc2F)CCC1 [Methyl N-[1-(5-chloro-2-fluorophenyl)cyclobutyl]-N-{[(2S)-pyrrolidin-2-yl]methyl}carbamate]
17 | < 1 | COC(=O)N(C[C@@H]1CCCN1)C1(c2cc(C(F)(F)F)ccc2F)CCC1 [Methyl N-{1-[2-fluoro-5-(trifluoromethyl)phenyl]cyclobutyl}-N-{[(2S)-pyrrolidin-2-yl]methyl}carbamate]
18 | < 0.3 | COC(=O)N(C[C@H]1CCCN1)C1(c2cc(F)cc(C(F)(F)F)c2)CCC1 [Methyl N-{1-[3-fluoro-5-(trifluoromethyl)phenyl]cyclobutyl}-N-{[(2R)-pyrrolidin-2-yl]methyl}carbamate]

Row | IC50 [µM] | SMILES
19 | < 0.3 | COC(=O)N(C[C@@H]1CCCN1)C1(c2cc(F)cc(C(F)(F)F)c2)CCC1 [Methyl N-{1-[3-fluoro-5-(trifluoromethyl)phenyl]cyclobutyl}-N-{[(2S)-pyrrolidin-2-yl]methyl}carbamate]
20 | < 0.3 | COC(=O)N(C[C@H]1CCCN1)C1(c2cccc(OC(F)(F)F)c2)CCC1 [Methyl N-{[(2R)-pyrrolidin-2-yl]methyl}-N-{1-[3-(trifluoromethoxy)phenyl]cyclobutyl}carbamate]
21 | < 0.3 | COC(=O)N(C[C@@H]1CCCN1)C1(c2cccc(OC(F)(F)F)c2)CCC1 [Methyl N-{[(2S)-pyrrolidin-2-yl]methyl}-N-{1-[3-(trifluoromethoxy)phenyl]cyclobutyl}carbamate]
22 | < 1 | COC(=O)N(C1CNC1)C1(c2ccc(F)c(C(F)(F)F)c2)CC1 [Methyl azetidin-3-yl(1-(4-fluoro-3-(trifluoromethyl)phenyl)cyclopropyl)carbamate]
23 | < 0.3 | CC(C)(N)CNC1(c2cccc(Cl)c2)CCC1 [N1-[1-(3-chlorophenyl)cyclobutyl]-2-methylpropane-1,2-diamine]
24 | < 0.3 | CC(C)(N)CN(C1CCC1)C1(c2cccc(C(F)(F)F)c2)CC1 [N1-cyclobutyl-2-methyl-N1-(1-(3-(trifluoromethyl)phenyl)cyclopropyl)propane-1,2-diamine]
25 | < 0.3 | CC(C)(N)CNC1(c2ccc(F)c(C(F)(F)F)c2)CCC1 [N1-{1-[4-fluoro-3-(trifluoromethyl)phenyl]cyclobutyl}-2-methylpropane-1,2-diamine]
26 | < 1 | CS(=O)(=O)N(CC1(N)CC1)C1(c2ccc(F)c(C(F)(F)F)c2)CC1 [N-((1-aminocyclopropyl)methyl)-N-(1-(4-fluoro-3-(trifluoromethyl)-phenyl)cyclopropyl)methanesulfonamide]
27 | < 1 | FC(F)(F)Oc1cccc(C2(NC[C@H]3CCCN3)CCC2)c1 [N-{[(2R)-pyrrolidin-2-yl]methyl}-1-[3-(trifluoromethoxy)phenyl]cyclobutan-1-amine]
28 | < 1 | FC(F)(F)c1cccc(C2(NC[C@H]3CCCN3)CCC2)c1 [N-{[(2R)-pyrrolidin-2-yl]methyl}-1-[3-(trifluoromethyl)phenyl]cyclobutan-1-amine]
29 | < 1 | FC(F)(F)Oc1cccc(C2(NC[C@@H]3CCCN3)CCC2)c1 [N-{[(2S)-pyrrolidin-2-yl]methyl}-1-[3-(trifluoromethoxy)phenyl]cyclobutan-1-amine]
30 | < 1 | FC(F)(F)c1cccc(C2(NC[C@@H]3CCCN3)CCC2)c1 [N-{[(2S)-pyrrolidin-2-yl]methyl}-1-[3-(trifluoromethyl)phenyl]cyclobutan-1-amine]
31 | < 0.3 | COC(=O)N(CC(C)(C)N)C1(c2cccc(C(F)(F)F)c2)CCC1 [methyl N-(2-amino-2-methylpropyl)-N-{1-[3-(trifluoromethyl)phenyl]cyclobutyl}carbamate]
32 | < 0.3 | COC(=O)N(CC(C)(C)N)C1(c2ccc(F)c(C(F)(F)F)c2)CCC1 [methyl N-(2-amino-2-methylpropyl)-N-{1-[4-fluoro-3-(trifluoromethyl)phenyl]cyclobutyl}carbamate]
33 | < 0.3 | COC(=O)N(C[C@H]1CCCN1)C1(c2ccc(F)c(C(F)(F)F)c2)CCC1 [methyl N-{1-[4-fluoro-3-(trifluoromethyl)phenyl]cyclobutyl}-N-{[(2R)-pyrrolidin-2-yl]methyl}carbamate]
34 | < 0.3 | COC(=O)N(C[C@@H]1CCCN1)C1(c2ccc(F)c(C(F)(F)F)c2)CCC1 [methyl N-{1-[4-fluoro-3-(trifluoromethyl)phenyl]cyclobutyl}-N-{[(2S)-pyrrolidin-2-yl]methyl}carbamate]
35 | < 0.3 | COC(=O)N(C[C@H]1CCCN1)C1(c2cccc(C(F)(F)F)c2)CCC1 [methyl N-{[(2R)-pyrrolidin-2-yl]methyl}-N-{1-[3-(trifluoromethyl)phenyl]cyclobutyl}carbamate]
36 | < 0.3 | COC(=O)N(C[C@@H]1CCCN1)C1(c2cccc(C(F)(F)F)c2)CCC1 [methyl N-{[(2S)-pyrrolidin-2-yl]methyl}-N-{1-[3-(trifluoromethyl)phenyl]cyclobutyl}carbamate]

Row | SMILES | IC50 [µM]
37 | CS(=O)(=O)N(C[C@H]1CCCN1)C1(c2ccc(F)c(C(F)(F)F)c2)CC1 [(R)-N-(1-(4-fluoro-3-(trifluoromethyl)phenyl)cyclopropyl)-N-(pyrrolidin-2-ylmethyl) methane sulfonamide] | < 1
